The values below come from patent publication US20150150892A1, “METHODS AND PRODUCTS RELATED TO LUNG CANCER” (Massachusetts Institute of Technology, priority 2012, published 2015).

The conditions of data set [1]: human, in vivo; cited from earlier work.
Data set [2] relates to luciferase-tagged KP cells transplanted into immunocompetent recipient mice. Briefly: Orthotopic lung tumor model, survival and bioluminescence imaging. Type of data set: in vivo, mouse. The source says:
FIG. 6: Imaging bortezomib response and resistance in an orthotopic lung tumor model. (6A) experimental design. Lung cancer cells derived from KP tumors were infected with a retrovirus expressing luciferase and transplanted into immunocompetent recipient mice by tail vein injection. (6B) Kaplan-Meier survival curve of control and bortezomib-treated recipient mice (n=6; P=1.4×10−5). A total of 10,000 cells were transplanted, and treatment started after 35 days. (6C) representative bioluminescence imaging of recipient mice (n=6) treated with vehicle control or bortezomib, as in 6B. D0 refers to the first treatment. Arrows indicate weekly bortezomib regimen.
FIG. 7: The NF-κB inhibitor Bay-117082 leads to lung tumor regression in vivo. (7A) quantitative PCR analysis of NF-κB target gene expression in KP cells treated with 10 μM Bay-117082 for indicated hours. Error bars are SD (n=3). (7B) Bay-117082 treatment leads to lung tumor regression and delays tumor progression in the orthotopic lung tumor model. A total of 50,000 luciferase-tagged KP cells were transplanted into recipient mice (n=6), and treatment was started at 19 days after transplantation (set at D0). Mice were treated with vehicle control or 10 mg/kg Bay-117082 by i.p. injection, and imaged at the indicated time points. Arrows indicate Bay-117082 injections. (7C) Bay-117082 prolongs survival in the KP model (n=6; P=0.008). “i.p. dosing” indicates treatment with 3 doses per week.
At indicated time points, mice were scanned for 15 min under isoflurane anesthesia, using a small animal eXplore Locus microCT (GE Healthcare) at 45-μm resolution, 80 kV, with 450-mA current (47). Images were acquired and processed using GE eXplore software. Bioluminescence imaging was performed as previously described (48). Mice were imaged for 60 seconds, and signals in the lung were quantified using Xenogen software.
To facilitate imaging of the bortezomib treatment response, we adapted a transplantation-based orthotopic lung cancer mouse model (37). As outlined in FIG. 6A, we infected KP cell lines with a retrovirus expressing firefly luciferase. The cells were transplanted into immunocompetent recipient mice by i.v. injection, resulting in the development of in situ lung tumors that could be imaged and quantified by bioluminescence imaging.
To determine whether bortezomib therapy was effective in the orthotopic model, we transplanted 10,000 KP cells into host mice and treated the mice 5 weeks later, either with control or with a weekly 4-dose regimen of bortezomib (37).

The subject of the next data set is KrasLSL-G12D/wt mice. Briefly: Kaplan-Meier survival of K mice. Type of data set: in vivo, mouse. The note with it: KrasLSL-G12D/wt cohort, weekly 1 mg/kg bortezomib; P=0.36.
The conditions of data set [3]: cited from earlier work.
For data set [4], the system named is LKR13 cells and 3TZ fibroblasts. Put plainly: Trypan blue quantification of cell death, control cells. Type of data set: cell-based, mouse. The note with it: 24 hours.
The subject of data set [5] is CDK inhibitors p21 and p27. Conditions: cited from earlier work.
Data set [6] relates to Bortezomib-resistant KP cell lines. The note with it: upon bortezomib treatment; viability 24 hours, colonies 7 days.
Method: (12A) Relative cell viability in cell lines treated with increasing doses of Bortezomib for 24 hours. Cells lines were outgrown from Bortezomib resistant orthotopic tumors (resistant 1&2) or sensitive tumors (sensitive) as in FIG. 6C. Error bars are s.d. (n=3). (12B) Colony formation assay in Bortezomib-resistant cells. 104 cells were plated in 6-well plate and treated with indicated drug concentration. Plates were stained 7 days later with crystal violet solution. Drug-containing medium was refreshed every 4 days.
Cells were split into 96-well plates (5,000 cells per well). After 24 hours, cells were treated with bortezomib, and 24 hours later cell viability was measured by the Cell Titer Aqueous Kit (Promega) in triplicates. Vehicle control-treated cell values were set to 1 (100% viability).
[7] abbreviates: orthotopic model, weekly bortezomib.

Method for KrasLSL-G12D/wt mice: (5A and 5B) Kaplan-Meier survival curve of vehicle control and bortezomib-treated KP (5A) and K (5B) mice. Arrows indicate weekly 1 mg/kg bortezomib regimen.
To initiate lung tumors, cohorts of K or KP mice of 129svJae background were infected with 2.5×10^7 plaque-forming units of Adeno-Cre (University of Iowa) by intranasal inhalation, as described previously (2, 28). Mice were given bortezomib (LC Labs) in PBS [0.5% dimethylsulfoxide (DMSO)] at 1 mg/kg body weight i.v., as indicated. Bay-117082 (CalBiochem) was dissolved in DMSO, diluted in PBS as a fine suspension, and injected at 10 mg/kg body weight i.p., as indicated.
Using a cohort of KP mice, we treated tumor-bearing animals 8 weeks after Adeno-Cre infection with bortezomib once a week for 4 weeks (FIG. 10A).

Regarding `CC(C)C[C@H](NC(=O)[C@H](Cc1ccccc1)NC(=O)c1cnccn1)B(O)O` [bortezomib, N-(2-pyrazine) carbonyl-L-phenylalanine-L-leucine boronic acid], the “side effects in the clinic” value in data set [1] is on record as “manageable side effects”. This molecule came in with an average survival in data set [2] (10,000 KP cells transplanted, weekly 4-dose bortezomib from 5 weeks, control 47.0±2.0 days, P=1.4×10^−5) of 64.0 ± 5.4 days. Further, the “bioluminescence tumor signal at day 2 and day 4” value in data set [2] (orthotopic model, after first bortezomib treatment) is listed as “marked tumor regression”. Also, in data set [2] (setting [7]), the “effect of a 4th dose” value is recorded as “ineffective”; the “lung tumor signal after the 2nd and 3rd treatments” value is reported as “still decreased or stabilized”. The survival entry with KrasLSL-G12D/wt mice is on record as “no improvement in survival”. Besides, the half-life in vivo result in data set [3] is reported as “short half-life”. The “cell death by Trypan blue counting” value in data set [4] is “did not show substantial cell death”. Besides, the “effect on CDK inhibitors p21 and p27” value in data set [5] is “stabilize”. In addition, the “viability and colony formation of resistant cells compared with sensitive cells” value in data set [6] is “higher viability and increased colony formation”.
